Assay results as given in US11939314B2, “Quinolin-2-one derivatives” (MERCK PATENT GMBH, priority 2016, dated 2024).

Molecular target: T1, c-Kit(V654A) (Homo sapiens, UniProt P10721, V654A)
T1 construct: amino acids 544-end containing the V654A mutation; GST (N)
Test: c-Kit(V654A) assay
Assay type: biochemical
Details: recombinant human c-Kit aa 544-end, 200 μM ATP, 1.4E-06 means 1.4×10^−6, read-out: Inhibition (IC50) of c-KIT (V654A)
Experimental: c-Kit(V654A) (N-terminal GST-tagged, recombinant human c-Kit, amino acids 544-end containing the V654A mutation) is incubated with 8 mM MOPS pH 7.0, 0.2 mM EDTA, 250 μM GGMEDIYEFMGGKKK, 10 mM MgAcetate and [gamma-33P-ATP] (specific activity approx. 500 cpm/pmol, concentration 200 μM). The reaction is initiated by the addition of the MgATP mix. After incubation for 40 minutes at room temperature, the reaction is stopped by the addition of 3% phosphoric acid solution. 10 μL of the reaction is then spotted onto a P30 filtermat and washed three times for 5 minutes in 75 mM phosphoric acid and once in methanol prior to drying and scintillation counting.

T1 sequence (P10721 544-976 V654A): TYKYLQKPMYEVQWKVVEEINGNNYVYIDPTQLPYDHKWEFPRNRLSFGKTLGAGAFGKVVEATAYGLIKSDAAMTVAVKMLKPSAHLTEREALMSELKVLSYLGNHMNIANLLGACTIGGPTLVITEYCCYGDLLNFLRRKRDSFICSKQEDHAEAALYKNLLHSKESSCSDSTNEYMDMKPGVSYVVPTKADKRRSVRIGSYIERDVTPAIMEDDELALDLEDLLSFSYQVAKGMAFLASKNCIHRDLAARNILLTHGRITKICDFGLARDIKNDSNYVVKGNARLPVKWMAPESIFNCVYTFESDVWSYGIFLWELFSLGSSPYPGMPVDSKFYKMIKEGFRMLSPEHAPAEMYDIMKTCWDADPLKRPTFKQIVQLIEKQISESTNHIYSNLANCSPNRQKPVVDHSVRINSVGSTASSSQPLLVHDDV

Row | Compound | IC50
1 | O=c1[nH]c2ncccc2cc1-c1cn(-c2ccccc2)nn1 [A6, 3-(1-phenyl-1H-[1,2,3]triazol-4-yl)-1H-[1,8]naphthyridin-2-one] | 430 nM
2 | O=c1[nH]c2ncccc2cc1-c1cn(-c2ccc(CO)cc2)nn1 [A7, 3-[1-(4-hydroxymethyl-phenyl)-1H-[1,2,3]triazol-4-yl]-1H-[1,8]naphthyridin-2-one] | 490 nM
3 | Cc1c(-c2cn(-c3ccc(C(=O)N4CCOCC4)cc3)nn2)c(=O)[nH]c2ccccc12 [A185, 4-methyl-3-{1-[4-(morpholine-4-carbonyl)-phenyl]-1H-[1,2,3]triazol-4-yl}-1H-quinolin-2-one] | 510 nM
4 | CS(=O)(=O)[C@H]1CCN(C(=O)c2ccc(-n3cc(-c4cc5cc(F)ccc5[nH]c4=O)nn3)cc2)C1 [A283, 6-fluoro-3-{1-[4-((S)-3-methanesulfonyl-pyrrolidine-1-carbonyl)-phenyl]-1H-[1,2,3]triazol-4-yl}-1H-quinolin-2-one] | 19 nM
5 | CS(=O)(=O)CC1CCN(C(=O)c2ccc(-n3cc(-c4cc5cc(F)ccc5[nH]c4=O)nn3)cc2)C1 (stereo not drawn) [A284, 6-fluoro-3-{1-[4-(3-methanesulfonylmethyl-pyrrolidine-1-carbonyl)-phenyl]-1H-[1,2,3]triazol-4-yl}-1H-quinolin-2-one] | 17 nM
6 | CN1CCN(CC2CCCN2C(=O)c2ccc(-n3cc(-c4cc5cc(F)ccc5[nH]c4=O)nn3)cc2)CC1 (stereo not drawn) [A287, 6-fluoro-3-(1-{4-[2-(4-methyl-piperazin-1-ylmethyl)-pyrrolidine-1-carbonyl]-phenyl}-1H-[1,2,3]triazol-4-yl)-1H-quinolin-2-one] | 25 nM
7 | CN1CC2(CCN(C(=O)c3ccc(-n4cc(-c5cc6cc(F)ccc6[nH]c5=O)nn4)cc3)C2)C1 [A289, 6-fluoro-3-{1-[4-(2-methyl-2,6-diaza-spiro[3.4]octane-6-carbonyl)-phenyl]-1H-[1,2,3]triazol-4-yl}-1H-quinolin-2-one] | 25 nM
8 | CO[C@@H]1CN[C@H](C(=O)N(C)c2ccc(-n3cc(-c4cc5cc(F)ccc5[nH]c4=O)nn3)cc2)C1 [A347, (2S,4S)-4-methoxy-pyrrolidine-2-carboxylic acid {4-[4-(6-fluoro-2-oxo-1,2-dihydro-quinolin-3-yl)-[1,2,3]triazol-1-yl]-phenyl}-methyl-amide] | 26 nM
9 | CN1CCC(C(=O)N(C)c2ccc(-n3cc(-c4cc5cc(F)ccc5[nH]c4=O)nn3)cc2)CC1 [A349, 1-methyl-piperidine-4-carboxylic acid {4-[4-(6-fluoro-2-oxo-1,2-dihydro-quinolin-3-yl)-[1,2,3]triazol-1-yl]-phenyl}-methyl-amide] | 51 nM
10 | CO[C@@H]1CCN(S(=O)(=O)c2ccc(-n3cc(-c4cc5cc(F)ccc5[nH]c4=O)nn3)cc2)C1 [A358, 6-fluoro-3-{1-[4-((R)-3-methoxy-pyrrolidine-1-sulfonyl)-phenyl]-1H-[1,2,3]triazol-4-yl}-1H-quinolin-2-one] | 19 nM
11 | CO[C@H]1CCN(S(=O)(=O)c2ccc(-n3cc(-c4cc5cc(F)ccc5[nH]c4=O)nn3)cc2)C1 [A360, 6-fluoro-3-{1-[4-((S)-3-methoxy-pyrrolidine-1-sulfonyl)-phenyl]-1H-[1,2,3]triazol-4-yl}-1H-quinolin-2-one] | 22 nM
12 | CO[C@@H]1CCC[C@H]1Oc1ccc(-n2cc(-c3cc4cc(F)ccc4[nH]c3=O)nn2)cc1 [A362, 6-fluoro-3-{1-[4-((1S,25)-2-methoxy-cyclopentyloxy)-phenyl]-1H-[1,2,3]triazol-4-yl}-1H-quinolin-2-one] | 16 nM
13 | O=c1[nH]c2ccc(F)cc2cc1-c1cn(-c2ccc(OC3CCCC3)cc2)nn1 [A364, 3-[1-(4-cyclopentyloxy-phenyl)-1H-[1,2,3]triazol-4-yl]-6-fluoro-1H-quinolin-2-one] | 21 nM
14 | CN1CC[C@H](Oc2ccc(-n3cc(-c4cc5cc(F)c(F)cc5[nH]c4=O)nn3)cc2)C1 [A372, 6,7-difluoro-3-{1-[4-((S)-1-methyl-pyrrolidin-3-yloxy)-phenyl]-1H-[1,2,3]triazol-4-yl}-1H-quinolin-2-one] | 21 nM
15 | CN1CCC(Cc2ccc(-n3cc(-c4cc5cc(Cl)ccc5[nH]c4=O)nn3)cc2)CC1 [A374, 6-chloro-3-{1-[4-(1-methyl-piperidin-4-ylmethyl)-phenyl]-1H-[1,2,3]triazol-4-yl}-1H-quinolin-2-one] | 17 nM

Continued by falling IC50, values first:

Row | IC50 | Compound
16 | 16 nM | CS(=O)(=O)[C@@H]1CCN(C(=O)c2ccc(-n3cc(-c4cc5cc(F)ccc5[nH]c4=O)nn3)cc2)C1 [A282, 6-fluoro-3-{1-[4-((R)-3-methanesulfonyl-pyrrolidine-1-carbonyl)-phenyl]-1H-[1,2,3]triazol-4-yl}-1H-quinolin-2-one]
17 | 16 nM | CN1CCN(C(=O)c2ccc(-n3cc(-c4cc5cc(F)c(F)cc5[nH]c4=O)cn3)cc2)CC1 [A304, 6,7-difluoro-3-{1-[4-(4-methyl-piperazine-1-carbonyl)-phenyl]-1H-pyrazol-4-yl}-1H-quinolin-2-one]
18 | 16 nM | CO[C@H](C)C(=O)N(C)c1ccc(-n2cc(-c3cc4cc(F)ccc4[nH]c3=O)nn2)cc1 [A346, (R)—N-{4-[4-(6-fluoro-2-oxo-1,2-dihydro-quinolin-3-yl)-[1,2,3]triazol-1-yl]-phenyl}-2-methoxy-N-methyl-propionamide]
19 | 16 nM | CO[C@@H](C)C(=O)N(C)c1ccc(-n2cc(-c3cc4cc(F)ccc4[nH]c3=O)nn2)cc1 [A348, (S)—N-{4-[4-(6-fluoro-2-oxo-1,2-dihydro-quinolin-3-yl)-[1,2,3]triazol-1-yl]-phenyl}-2-methoxy-N-methyl-propionamide]
20 | 16 nM | CO[C@H]1CCN(C(=O)c2cc(-n3cc(-c4cc5cc(F)ccc5[nH]c4=O)nn3)cs2)C1 [A350, 6-fluoro-3-{1-[5-((S)-3-methoxy-pyrrolidine-1-carbonyl)-thiophen-3-yl]-1H-[1,2,3]triazol-4-yl}-1H-quinolin-2-one]
21 | 15 nM | CN1CC[C@@H](Oc2ccc(-n3cc(-c4cc5cc(F)c(F)cc5[nH]c4=O)nn3)cc2)C1 [A373, 6,7-difluoro-3-{1-[4-((R)-1-methyl-pyrrolidin-3-yloxy)-phenyl]-1H-[1,2,3]triazol-4-yl}-1H-quinolin-2-one]
22 | 14 nM | CN1CC2(CCN(C(=O)c3ccc(-n4cc(-c5cc6cc(Cl)ccc6[nH]c5=O)nn4)cc3)C2)C1 [A290, 6-chloro-3-{1-[4-(2-methyl-2,6-diaza-spiro[3.4]octane-6-carbonyl)-phenyl]-1H-[1,2,3]triazol-4-yl}-1H-quinolin-2-one]
23 | 14 nM | CO[C@@H]1CCN(C(=O)c2cc(-n3cc(-c4cc5cc(F)ccc5[nH]c4=O)nn3)cs2)C1 [A351, 6-fluoro-3-{1-[5-((R)-3-methoxy-pyrrolidine-1-carbonyl)-thiophen-3-yl]-1H-[1,2,3]triazol-4-yl}-1H-quinolin-2-one]
24 | 13 nM | CO[C@@H]1CCN(S(=O)(=O)c2ccc(-n3cc(-c4cc5cc(Cl)ccc5[nH]c4=O)nn3)cc2)C1 [A359, 6-chloro-3-{1-[4-((R)-3-methoxy-pyrrolidine-1-sulfonyl)-phenyl]-1H-[1,2,3]triazol-4-yl}-1H-quinolin-2-one]
25 | 11 nM | CO[C@H]1CCN(S(=O)(=O)c2ccc(-n3cc(-c4cc5cc(Cl)ccc5[nH]c4=O)nn3)cc2)C1 [A361, 6-chloro-3-{1-[4-((S)-3-methoxy-pyrrolidine-1-sulfonyl)-phenyl]-1H-[1,2,3]triazol-4-yl}-1H-quinolin-2-one]
26 | 9.5 nM | CN1CCC(Oc2ccc(-n3cc(-c4cc5cc(F)ccc5[nH]c4=O)nn3)cc2)CC1 [A375, 6-fluoro-3-{1-[4-(1-methyl-piperidin-4-yloxy)-phenyl]-1H-[1,2,3]triazol-4-yl}-1H-quinolin-2-one]
27 | 9.2 nM | CN(C)C1CN(C(=O)c2ccc(-n3cc(-c4cc5cc(F)ccc5[nH]c4=O)nn3)cc2)CC1(F)F (stereo not drawn) [A339, 3-{1-[4-(4-dimethylamino-3,3-difluoro-pyrrolidine-1-carbonyl)-phenyl]-1H-[1,2,3]triazol-4-yl}-6-fluoro-1H-quinolin-2-one]
28 | 7.7 nM | CN1CCN(C(=O)c2ccc(-n3cc(-c4cc5cc(Cl)ccc5[nH]c4=O)cn3)cc2)CC1 [A305, 6-chloro-3-{1-[4-(4-methyl-piperazine-1-carbonyl)-phenyl]-1H-pyrazol-4-yl}-1H-quinolin-2-one]
29 | 7.5 nM | CN1C[C@H]2CCN(C(=O)c3ccc(-n4cc(-c5cc6cc(F)ccc6[nH]c5=O)nn4)cc3)[C@H]2C1 [A291, 6-fluoro-3-{1-[4-((3aR,6aR)-5-methyl-hexahydro-pyrrolo[3,4-b]pyrrole-1-carbonyl)-phenyl]-1H-[1,2,3]triazol-4-yl}-1H-quinolin-2-one]
30 | 6.5 nM | CC1CCCN1C(=O)c1ccc(-n2cc(-c3cc4cc(F)ccc4[nH]c3=O)nn2)cc1 (stereo not drawn) [A288, 6-fluoro-3-{1-[4-(2-methyl-pyrrolidine-1-carbonyl)-phenyl]-1H-[1,2,3]triazol-4-yl}-1H-quinolin-2-one]
31 | 5.6 nM | Cn1cc(C2CCCN2C(=O)c2ccc(-n3cc(-c4cc5cc(F)ccc5[nH]c4=O)nn3)cc2)cn1 (stereo not drawn) [A285, 6-fluoro-3-(1-{4-[2-(1-methyl-1H-pyrazol-4-yl)-pyrrolidine-1-carbonyl]-phenyl}-1H-[1,2,3]triazol-4-yl)-1H-quinolin-2-one]
32 | 5.1 nM | O=C(c1ccc(-n2cc(-c3cc4cc(F)ccc4[nH]c3=O)nn2)cc1)N1CCCC1c1cccnc1 (stereo not drawn) [A286, 6-fluoro-3-{1-[4-(2-pyridin-3-yl-pyrrolidine-1-carbonyl)-phenyl]-1H-[1,2,3]triazol-4-yl}-1H-quinolin-2-one]
33 | 4.9 nM | CN1CCC(Oc2ccc(-n3cc(-c4cc5cc(Cl)ccc5[nH]c4=O)nn3)cc2)CC1 [A376, 6-chloro-3-{1-[4-(1-methyl-piperidin-4-yloxy)-phenyl]-1H-[1,2,3]triazol-4-yl}-1H-quinolin-2-one]
